Nc1ccc([N+](=O)[O-])cc1[N+](=O)[O-]
solubility (mole fraction)
Settings	in acetone	in acetonitrile	in ethanol	in ethyl acetate	in isopropanol	in methanol	in n-butanol	in n-propanol	in toluene
278.15 K	0.0281	0.00772	0.00126	0.0116	0.000854	0.00126	0.00144	0.00103	0.00033
280.65 K	0.0304	0.00829	0.0014	0.0127	0.00097	0.00138	0.00154	0.00116	0.000383
283.15 K	0.0328	0.00893	0.00154	0.0138	0.0011	0.00156	0.00172	0.00131	0.000443
285.65 K	0.0355	0.0098	0.00173	0.0151	0.00125	0.00173	0.00193	0.00146	0.000511
288.15 K	0.0381	0.0108	0.00193	0.0163	0.00142	0.00192	0.00216	0.00163	0.000573
290.65 K	0.0407	0.0118	0.00211	0.0177	0.00159	0.00212	0.00243	0.0018	0.000642
293.15 K	0.0437	0.0127	0.00232	0.0191	0.00177	0.00232	0.00271	0.00198	0.000724
295.65 K	0.0467	0.0138	0.00254	0.0205	0.002	0.00253	0.00299	0.00217	0.000814
298.15 K	0.0497	0.0149	0.00278	0.0221	0.00227	0.00276	0.00329	0.00238	0.000917
300.65 K	0.0531	0.0161	0.00304	0.0238	0.00253	0.00301	0.00365	0.00262	0.00102
303.15 K	0.0565	0.0174	0.00331	0.0257	0.00281	0.00327	0.00406	0.00287	0.00114
305.65 K	0.0604	0.0188	0.00359	0.0278	0.00313	0.00356	0.00447	0.00314	0.00128
308.15 K	0.0642	0.0203	0.00391	0.0301	0.00346	0.00386	0.00494	0.00346	0.00142
310.65 K	0.0682	0.0216	0.00428	0.0324	0.00383	0.00421	0.00543	0.0038	0.00158
313.15 K	0.0723	0.023	0.00468	0.035	0.00426	0.00456	0.00589	0.00413	0.00175
315.65 K	0.0769	0.0247	0.00511	0.0374	0.00469	0.00493	0.00646	0.00452	0.00193
318.15 K	0.0815	0.0264	0.00555	0.0403	0.00522	0.00537	0.00712	0.00493	0.00217

Source: BigSolDB 2.1
